Reference: PMC5218480 (PLoS ONE, 2017)

Test system: MV-4-11 cells
Experiment: Gene expression microarray analysis (Affymetrix PrimeView) and GSEA
Format: cell-based, human
Parameters: RFU PODN (11730768_x_at) / Fold change /veh PODN (11730768_x_at) / RFU LINC00158 (11744669_a_at) / Fold change /veh LINC00158 (11744669_a_at) / RFU DUSP10 (11751237_a_at) / Fold change /veh DUSP10 (11751237_a_at) / RFU ID3 (11757404_x_at) / Fold change /veh ID3 (11757404_x_at) / RFU PLEKHG5 (11737974_s_at) / Fold change /veh PLEKHG5 (11737974_s_at) / RFU LRRC4B (11730491_at) / Fold change /veh LRRC4B (11730491_at) / RFU GIMAP4 (11747438_a_at) / Fold change /veh GIMAP4 (11747438_a_at) / RFU KRT8 (11758183_x_at) / Fold change /veh KRT8 (11758183_x_at) / RFU CNN1 (11734310_a_at) / Fold change /veh CNN1 (11734310_a_at) / RFU VPS37D (11726825_at) / Fold change /veh VPS37D (11726825_at) / RFU C10orf10 (11716522_x_at) / Fold change /veh C10orf10 (11716522_x_at) / RFU KIR2DL2 /// KIR2DL4 /// KIR2DL5A /// KIR2DL5B /// KIR2DS1 /// KIR2DS2 /// KIR2DS3 /// KIR2DS4 /// KIR3DL3 /// KIR3DL3 /// KIR3DS1 (11738374_at) / Fold change /veh KIR2DL2 /// KIR2DL4 /// KIR2DL5A /// KIR2DL5B /// KIR2DS1 /// KIR2DS2 /// KIR2DS3 /// KIR2DS4 /// KIR3DL3 /// KIR3DL3 /// KIR3DS1 (11738374_at) / RFU C1QL1 (11718748_at) / Fold change /veh C1QL1 (11718748_at) / RFU TMPRSS4 (11747572_a_at) / Fold change /veh TMPRSS4 (11747572_a_at) / RFU HAMP (11756126_x_at) / Fold change /veh HAMP (11756126_x_at) / RFU RNFT2 (11725882_a_at) / Fold change /veh RNFT2 (11725882_a_at) / RFU NR4A2 (11747474_a_at) / Fold change /veh NR4A2 (11747474_a_at) / RFU ABCC12 (11746883_a_at) / Fold change /veh ABCC12 (11746883_a_at) / RFU TMEM136 (11760407_x_at) / Fold change /veh TMEM136 (11760407_x_at) / RFU CLDN22 /// WWC2 (11732394_at) / Fold change /veh CLDN22 /// WWC2 (11732394_at) / RFU HLA-DPB1 (11760878_x_at) / Fold change /veh HLA-DPB1 (11760878_x_at) / RFU SPINT1 (11716480_a_at) / Fold change /veh SPINT1 (11716480_a_at) / RFU GAP43 (11754022_s_at) / Fold change /veh GAP43 (11754022_s_at) / RFU A4GNT (11735810_at) / Fold change /veh A4GNT (11735810_at) / RFU PRB3 (11715151_x_at) / Fold change /veh PRB3 (11715151_x_at) / RFU TUBB4B (11761932_at) / Fold change /veh TUBB4B (11761932_at) / RFU CAPN14 (11732068_a_at) / Fold change /veh CAPN14 (11732068_a_at) / RFU TMCC2 (11721928_a_at) / Fold change /veh TMCC2 (11721928_a_at) / RFU IRGQ (11745062_a_at) / Fold change /veh IRGQ (11745062_a_at) / RFU FAM174B (11720279_a_at) / Fold change /veh FAM174B (11720279_a_at) / RFU TMPRSS4 (11748680_a_at) / Fold change /veh TMPRSS4 (11748680_a_at) / RFU FAM212B (11763350_a_at) / Fold change /veh FAM212B (11763350_a_at) / RFU PLEKHG5 (11743358_a_at) / Fold change /veh PLEKHG5 (11743358_a_at) / RFU ZSCAN30 (11745921_a_at) / Fold change /veh ZSCAN30 (11745921_a_at) / RFU CMKLR1 (11741424_a_at) / Fold change /veh CMKLR1 (11741424_a_at) / RFU LOC101060620 /// MAPK8IP1 (11723275_at) / Fold change /veh LOC101060620 /// MAPK8IP1 (11723275_at) / RFU SPTSSB (11747773_x_at) / Fold change /veh SPTSSB (11747773_x_at) / RFU PRSS12 (11739890_at) / Fold change /veh PRSS12 (11739890_at) / RFU BIN1 (11741810_x_at) / Fold change /veh BIN1 (11741810_x_at) / RFU WNT11 (11732464_a_at) / Fold change /veh WNT11 (11732464_a_at) / RFU C10orf10 (11716521_a_at) / Fold change /veh C10orf10 (11716521_a_at) / RFU C5orf56 (11738089_at) / Fold change /veh C5orf56 (11738089_at) / RFU CYB561 (11721691_x_at) / Fold change /veh CYB561 (11721691_x_at) / RFU ANKRD19P (11752326_a_at) / Fold change /veh ANKRD19P (11752326_a_at) / RFU OR2T12 /// OR2T33 /// OR2T8 (11738714_s_at) / Fold change /veh OR2T12 /// OR2T33 /// OR2T8 (11738714_s_at) / RFU VCAN (11748164_a_at) / Fold change /veh VCAN (11748164_a_at) / RFU JSRP1 (11732532_at) / Fold change /veh JSRP1 (11732532_at) / RFU KRTAP10-11 (11738290_x_at) / Fold change /veh KRTAP10-11 (11738290_x_at) / RFU MYO3A (11730013_a_at) / Fold change /veh MYO3A (11730013_a_at) / RFU EBF3 (11725865_a_at) / Fold change /veh EBF3 (11725865_a_at) / RFU CAMK2N1 (11719241_x_at) / Fold change /veh CAMK2N1 (11719241_x_at) / RFU C5orf56 (11738088_a_at) / Fold change /veh C5orf56 (11738088_a_at) / RFU OLFML3 (11715873_a_at) / Fold change /veh OLFML3 (11715873_a_at) / RFU LOC100653217 /// NTM (11731650_a_at) / Fold change /veh LOC100653217 /// NTM (11731650_a_at) / RFU MAPK11 (11762145_a_at) / Fold change /veh MAPK11 (11762145_a_at) / RFU FIZ1 (11724087_x_at) / Fold change /veh FIZ1 (11724087_x_at) / RFU OASL (11726364_x_at) / Fold change /veh OASL (11726364_x_at) / RFU SOX15 (11748057_x_at) / Fold change /veh SOX15 (11748057_x_at) / RFU CD79A (11719716_a_at) / Fold change /veh CD79A (11719716_a_at) / RFU HIST1H1D (11736915_at) / Fold change /veh HIST1H1D (11736915_at) / RFU CASKIN2 (11723855_a_at) / Fold change /veh CASKIN2 (11723855_a_at) / RFU LOC730098 (11760151_x_at) / Fold change /veh LOC730098 (11760151_x_at) / RFU OR4N2 (11742367_at) / Fold change /veh OR4N2 (11742367_at) / RFU PRRT2 (11749266_a_at) / Fold change /veh PRRT2 (11749266_a_at) / RFU SNX32 (11753110_a_at) / Fold change /veh SNX32 (11753110_a_at) / RFU CDHR5 (11726645_a_at) / Fold change /veh CDHR5 (11726645_a_at) / RFU RCAN1 (11760418_a_at) / Fold change /veh RCAN1 (11760418_a_at) / RFU FAM167A (11723789_a_at) / Fold change /veh FAM167A (11723789_a_at) / RFU FAM26E (11764081_at) / Fold change /veh FAM26E (11764081_at) / RFU ISYNA1 (11749810_s_at) / Fold change /veh ISYNA1 (11749810_s_at) / RFU ACY1 (11761880_at) / Fold change /veh ACY1 (11761880_at) / RFU 11764098_at / Fold change /veh 11764098_at / RFU SAMD14 (11745864_x_at) / Fold change /veh SAMD14 (11745864_x_at) / RFU NPB (11741838_a_at) / Fold change /veh NPB (11741838_a_at) / RFU TMPRSS6 (11731388_a_at) / Fold change /veh TMPRSS6 (11731388_a_at) / RFU KRTAP10-2 (11738614_at) / Fold change /veh KRTAP10-2 (11738614_at) / RFU ARHGAP8 /// PRR5-ARHGAP8 (11727945_x_at) / Fold change /veh ARHGAP8 /// PRR5-ARHGAP8 (11727945_x_at) / RFU KRTAP5-7 /// NADSYN1 (11734609_at) / Fold change /veh KRTAP5-7 /// NADSYN1 (11734609_at) / RFU RASL12 (11751679_a_at) / Fold change /veh RASL12 (11751679_a_at) / RFU CDKN2B (11736163_a_at) / Fold change /veh CDKN2B (11736163_a_at) / RFU PRF1 (11729649_at) / Fold change /veh PRF1 (11729649_at) / RFU, ZNF638 /// ZNF638-IT1 / Fold change vs veh, ZNF638 /// ZNF638-IT1 / RFU, PANK3 / Fold change vs veh, PANK3 / RFU, SH3YL1 / Fold change vs veh, SH3YL1 / RFU, ZEB2 / Fold change vs veh, ZEB2 / RFU, NRIP1 / Fold change vs veh, NRIP1 / RFU, PTTG1IP / Fold change vs veh, PTTG1IP / RFU, CAPN2 / Fold change vs veh, CAPN2 / RFU, MED14 / Fold change vs veh, MED14 / RFU, SNORA58 / Fold change vs veh, SNORA58 / RFU, C1orf63 / Fold change vs veh, C1orf63 / RFU, LRRFIP1 / Fold change vs veh, LRRFIP1 / RFU, NDUFAF7 / Fold change vs veh, NDUFAF7 / RFU, SLC12A2 / Fold change vs veh, SLC12A2 / RFU, IBTK / Fold change vs veh, IBTK / RFU, ESF1 / Fold change vs veh, ESF1 / Fold change vs veh, TMEM50B / RFU, TAOK1 / Fold change vs veh, TAOK1 / RFU, ACBD3 / Fold change vs veh, ACBD3 / RFU, TMA16 / Fold change vs veh, TMA16 / RFU, RWDD3 / Fold change vs veh, RWDD3 / RFU, BCAT1 / Fold change vs veh, BCAT1 / RFU, EDEM3 / Fold change vs veh, EDEM3 / RFU, TMEM33 / Fold change vs veh, TMEM33 / RFU, WDR75 / Fold change vs veh, WDR75 / RFU, AHCTF1 / Fold change vs veh, AHCTF1 / RFU, TFRC / Fold change vs veh, TFRC / RFU, ZDHHC17 / Fold change vs veh, ZDHHC17 / RFU, NOM1 / Fold change vs veh, NOM1 / RFU, ARL8B / Fold change vs veh, ARL8B / RFU, ZBTB11 / Fold change vs veh, ZBTB11 / RFU, TAMM41 / Fold change vs veh, TAMM41 / RFU, KIAA1704 /// LOC100996395 / Fold change vs veh, KIAA1704 /// LOC100996395 / RFU, ING1 / Fold change vs veh, ING1 / RFU, TRMT61B / Fold change vs veh, TRMT61B / RFU, FUBP3 / Fold change vs veh, FUBP3 / RFU, TP53 / Fold change vs veh, TP53 / RFU, TNKS2 / Fold change vs veh, TNKS2 / RFU, ZFP14 / Fold change vs veh, ZFP14 / RFU, ACTR2 / Fold change vs veh, ACTR2 / RFU, PPP3R1 / Fold change vs veh, PPP3R1 / RFU, PIK3R1 / Fold change vs veh, PIK3R1 / RFU, HNRNPA1 / Fold change vs veh, HNRNPA1 / RFU, RNF170 / Fold change vs veh, RNF170 / RFU, ZNF28 / Fold change vs veh, ZNF28 / RFU, RNGTT / Fold change vs veh, RNGTT / RFU, OGT / Fold change vs veh, OGT / RFU, BRD1 / Fold change vs veh, BRD1 / RFU, MARS / Fold change vs veh, MARS / RFU, ZNF655 / Fold change vs veh, ZNF655 / RFU, FAHD1 / Fold change vs veh, FAHD1 / RFU, BDP1 / Fold change vs veh, BDP1 / RFU, LRRCC1 / Fold change vs veh, LRRCC1 / RFU, ARID1A / Fold change vs veh, ARID1A / RFU, ZNF146 / Fold change vs veh, ZNF146 / RFU, ZNF330 / Fold change vs veh, ZNF330 / RFU, GPN3 / Fold change vs veh, GPN3 / RFU, C9orf123 / Fold change vs veh, C9orf123 / RFU, N4BP2L2 / Fold change vs veh, N4BP2L2 / RFU, ARFIP1 / Fold change vs veh, ARFIP1 / RFU, FAM179B / Fold change vs veh, FAM179B / RFU, BCL10 / Fold change vs veh, BCL10 / RFU, UHRF1BP1L / Fold change vs veh, UHRF1BP1L / RFU, BET1 / Fold change vs veh, BET1 / RFU, CNOT2 / Fold change vs veh, CNOT2 / RFU, ZNF268 / Fold change vs veh, ZNF268 / Fold change vs veh, ZNF507 / RFU, DGCR2 / Fold change vs veh, DGCR2 / RFU, WDSUB1 / Fold change vs veh, WDSUB1 / Fold change vs veh, HSP90B1 /// MIR3652 / RFU, ADSS / Fold change vs veh, ADSS / RFU, GK / Fold change vs veh, GK / RFU, ZNF148 / Fold change vs veh, ZNF148 / RFU, TAF9 / Fold change vs veh, TAF9 / RFU, SLC1A5 / Fold change vs veh, SLC1A5 / RFU, SLMO2 / Fold change vs veh, SLMO2 / RFU, ABCC4 / Fold change vs veh, ABCC4 / RFU, LOC101060439 /// RAP1B / Fold change vs veh, LOC101060439 /// RAP1B / RFU, RFX7 / Fold change vs veh, RFX7 / RFU, GTPBP10 / Fold change vs veh, GTPBP10 / RFU, CNEP1R1 / Fold change vs veh, CNEP1R1 / RFU, BIVM-ERCC5 /// ERCC5 / Fold change vs veh, BIVM-ERCC5 /// ERCC5 / RFU, ILF3 / Fold change vs veh, ILF3 / RFU 11762660_at / Fold change /veh 11762660_at / RFU VCAN (11757783_s_at) / Fold change /veh VCAN (11757783_s_at) / RFU DDX43 (11728927_at) / Fold change /veh DDX43 (11728927_at) / RFU KRT8 (11758188_x_at) / Fold change /veh KRT8 (11758188_x_at) / RFU NKD1 (11759106_at) / Fold change /veh NKD1 (11759106_at) / RFU SRD5A1 (11742802_a_at) / Fold change /veh SRD5A1 (11742802_a_at) / RFU TPSAB1 /// TPSB2 (11721975_s_at) / Fold change /veh TPSAB1 /// TPSB2 (11721975_s_at) / RFU GSTM3 (11746129_a_at) / Fold change /veh GSTM3 (11746129_a_at) / RFU IL23R (11737362_x_at) / Fold change /veh IL23R (11737362_x_at) / RFU TMEM51 (11727254_a_at) / Fold change /veh TMEM51 (11727254_a_at) / RFU PIWIL2 (11732686_x_at) / Fold change /veh PIWIL2 (11732686_x_at) / RFU ORM1 (11744905_x_at) / Fold change /veh ORM1 (11744905_x_at) / RFU CCDC152 (11743942_at) / Fold change /veh CCDC152 (11743942_at) / RFU ECM1 (11717891_a_at) / Fold change /veh ECM1 (11717891_a_at) / RFU IL23R (11748794_a_at) / Fold change /veh IL23R (11748794_a_at) / RFU TNFAIP8L3 (11732012_x_at) / Fold change /veh TNFAIP8L3 (11732012_x_at) / RFU MBOAT4 (11741988_at) / Fold change /veh MBOAT4 (11741988_at) / RFU 11764193_at / Fold change /veh 11764193_at / RFU TMEM53 (11763286_at) / Fold change /veh TMEM53 (11763286_at) / RFU MAGEB2 (11727129_at) / Fold change /veh MAGEB2 (11727129_at) / RFU TMEM200A (11744735_a_at) / Fold change /veh TMEM200A (11744735_a_at) / RFU CCDC152 (11751479_a_at) / Fold change /veh CCDC152 (11751479_a_at) / RFU FAM211A (11726209_a_at) / Fold change /veh FAM211A (11726209_a_at) / RFU RGS16 (11746705_a_at) / Fold change /veh RGS16 (11746705_a_at) / RFU VCAN (11755009_s_at) / Fold change /veh VCAN (11755009_s_at) / RFU RHOB (11743442_s_at) / Fold change /veh RHOB (11743442_s_at) / RFU RGS16 (11720943_a_at) / Fold change /veh RGS16 (11720943_a_at) / RFU RGS16 (11720944_at) / Fold change /veh RGS16 (11720944_at) / RFU, VPS4B / Fold change vs veh, VPS4B / RFU, CREB1 / Fold change vs veh, CREB1 / RFU, DNAJC13 / Fold change vs veh, DNAJC13 / RFU, GNAQ / Fold change vs veh, GNAQ / RFU, CDK5R1 / Fold change vs veh, CDK5R1 / RFU, ZRANB3 / Fold change vs veh, ZRANB3 / RFU, CUL4A / Fold change vs veh, CUL4A / RFU, CCNY / Fold change vs veh, CCNY / RFU, UFL1 / Fold change vs veh, UFL1 / RFU, COG3 / Fold change vs veh, COG3 / RFU, DIAPH2 / Fold change vs veh, DIAPH2 / RFU, SKA2 / Fold change vs veh, SKA2 / RFU, AFF3 / Fold change vs veh, AFF3 / RFU, LMF1 / Fold change vs veh, LMF1 / RFU, IPO11 / Fold change vs veh, IPO11 / RFU, DFFB / Fold change vs veh, DFFB / RFU, FOXP1 / Fold change vs veh, FOXP1 / RFU, CARD8 / Fold change vs veh, CARD8 / RFU, STRN3 / Fold change vs veh, STRN3 / RFU, ADK / Fold change vs veh, ADK / RFU, RASSF2 / Fold change vs veh, RASSF2 / RFU, WIPF1 / Fold change vs veh, WIPF1 / RFU, LARP1B / Fold change vs veh, LARP1B / RFU, RASA1 / Fold change vs veh, RASA1 / RFU, RB1 / Fold change vs veh, RB1 / RFU, PPFIA1 / Fold change vs veh, PPFIA1 / RFU, MAT2A / Fold change vs veh, MAT2A / RFU, CCT5 / Fold change vs veh, CCT5 / RFU, WDR92 / Fold change vs veh, WDR92 / RFU, CUX1 / Fold change vs veh, CUX1 / RFU, TTC7A / Fold change vs veh, TTC7A / RFU, TMEM135 / Fold change vs veh, TMEM135 / RFU, DEPTOR / Fold change vs veh, DEPTOR / RFU, CPM / Fold change vs veh, CPM / RFU, DNAJB6 / Fold change vs veh, DNAJB6 / RFU, CACNA2D3 / Fold change vs veh, CACNA2D3 / RFU, DTX4 / Fold change vs veh, DTX4 / RFU, TFCP2 / Fold change vs veh, TFCP2 / RFU, GMCL1 /// GMCL1P1 / Fold change vs veh, GMCL1 /// GMCL1P1 / RFU, AEBP2 / Fold change vs veh, AEBP2 / RFU, SNHG1 /// SNORD22 /// SNORD25 /// SNORD26 /// SNORD27 /// SNORD28 /// SNORD29 /// SNORD31 / Fold change vs veh, SNHG1 /// SNORD22 /// SNORD25 /// SNORD26 /// SNORD27 /// SNORD28 /// SNORD29 /// SNORD31 / Fold change (Aza/veh), C12orf56 (ProbeSet 11735607_a_at) / Fold change (ACY-1035/veh), C12orf56 (ProbeSet 11735607_a_at) / Fold change (Aza/veh), FGFR1OP (ProbeSet 11751329_s_at) / Fold change (ACY-1035/veh), FGFR1OP (ProbeSet 11751329_s_at) / Fold change (Aza/veh), VPS36 (ProbeSet 11739960_a_at) / Fold change (ACY-1035/veh), VPS36 (ProbeSet 11739960_a_at) / RFU SYPL1 (11715823_x_at) / Fold change /veh SYPL1 (11715823_x_at) / RFU IGFBP7 (11715501_s_at) / Fold change /veh IGFBP7 (11715501_s_at) / RFU REEP3 (11722064_at) / Fold change /veh REEP3 (11722064_at) / RFU IGLL1 (11728026_x_at) / Fold change /veh IGLL1 (11728026_x_at): dose or concentration left out as unconfirmed
Conditions: ProbeSet 11754607_s_at; LIST B

## Nc1ncn([C@@H]2O[C@H](CO)[C@@H](O)[C@H]2O)c(=O)n1 [azacitidine]
  Fold change vs veh, HSP90B1 /// MIR3652: 0.90
